Results taken from patent US8524703B2, “Bridgehead amine ring-fused indoles and indolines” (AbbVie Inc., priority 2009, dated 2013).

Test system: SK-N-SH human neuroblastoma cells
Experiment: Serum Deprivation/JC-1 Mitochondrial Membrane Potential (MMP) Assay
Assay type: cell-based
Conditions: for Emax: read-out: JC-1 max %; for EC50: serum deprivation ~18 hours, JC-1 ratio normalized to peak value for 10 μM dimebolin
Experimental: Tissue Culture: SK-N-SH human neuroblastoma cells obtained from American Type Culture Collection (Rockville, Md.) were maintained in the log phase of growth in Minimal Essential Media (MEM), 10% heat inactivated fetal calf serum and 100 units/mL antibiotic-antimycotic (AA). Cells were cultured and maintained in a humidified incubator at 37° C. under 5% CO2 and 95% air. Cells were trypsinized (0.25%) and subcultured every 3 days and used from 15-18 passages. All cell culture supplies were obtained from Invitrogen (Carlsbad, Calif.).
Serum Deprivation/JC-1 Mitochondrial Membrane Potential (MMP) Assay.
SK-N-SH cells were plated 2-3 days in advance at a concentration of 50,000 cells/well onto collagen coated black-walled 96 well plates (Becton-Dickinson, Bedford, Mass.) in a total volume of 200 μL. On day of experimental treatment, the media containing serum was aspirated from each well and rinsed once with MEM/1% AA without serum. The cells then were incubated overnight in 100 μL of MEM/1% AA (no serum) with and without dimebolin or novel chemical entities overnight for ˜18 hours. The following day, JC-1 dye (5,5′,6,6′-tetrachloro-1,1′,3,3′-tetraethylbenzimidazolcarbocyanide) was diluted 1:10 into MEM media according to the JC-1 Mitochondrial Membrane Potential Assay Kit: (Cayman Chemical Company, Ann Arbor, Mich.) and then 10 μL of the JC-1 dye solution was added to each well. The plates were centrifuged for 5 minutes at 400×g at room temperature followed by 40 minute incubation at 37° C. The plates were washed twice with 200 μL of provided Assay Buffer followed an addition of 100 μL of Assay Buffer to each well. The plates were read with an excitation and emission of 560 nm and 595 nM for red fluorescence and with an excitation and emission of […] and 535 nM for green fluorescence to determine the final JC-1 value taking the red to green fluorescence ratio. This assay is based on change in mitochondrial membrane potential (MMP) using this lipophilic cationic dye, JC-1, by monitoring the changes in the ratio of red to green fluorescence as the MMP depolarizes. This change in MMP reflects the health of the cell with healthy, viable cells have a high JC-1 ratio and high MMP whereas apoptotic, unhealthy cells have a low JC-1 ratio or low MMP.
For the ability of compounds to reverse the stress due to serum deprivation and increase the JC-1 ratio, the percent maximal intensity in JC-1 ratio was normalized to that induced by the peak value for 10 μM dimebolin and plotted against the compound concentration to calculate EC50 values and to control for plate-to-plate variability. Concentration-response data were analyzed using GraphPad Prism (San Diego, Calif.); the EC50 values were derived from a single curve fit to the mean data of n=2-3, in duplicates.
All compounds were dissolved in dimethyl sulfoxide at 10 mM stock solutions and tested at a concentration that the dimethyl sulfoxide levels never exceeded 1%.

[1] = Homo sapiens, SK-N-SH, percent maximal JC-1 ratio normalized to peak value for 10 μM dimebolin

## C(=C\c1cccc2c3c([nH]c12)C1CCN(CC1)C3)/c1cncnc1 (single isomer, unassigned) [Example 29, 7-[(E)-2-(pyrimidin-5-yl)vinyl]-3,4,5,6-tetrahydro-1H-2,5-ethanoazepino[4,3-b]indole]
[1]
  Emax: 54%
Homo sapiens, SK-N-SH
  EC50: 5.33 µM

## C(=C/c1cccc2c3c([nH]c12)C1CCN(CC1)C3)/c1cncnc1 (single isomer, unassigned) [Example 30, 7-[(Z)-2-(pyrimidin-5-yl)vinyl]-3,4,5,6-tetrahydro-1H-2,5-ethanoazepino[4,3-b]indole]
[1]
  Emax: 29%
Homo sapiens, SK-N-SH
  EC50: > 30 µM

## Cc1ccc(CCc2cccc3c4c([nH]c23)C2CCN(CC2)C4)cn1 [Example 2, 7-[2-(6-methylpyridin-3-yl)ethyl]-3,4,5,6-tetrahydro-1H-2,5-ethanoazepino[4,3-b]indole]
[1]
  Emax: 170%
Homo sapiens, SK-N-SH
  EC50: 5.22 µM

## Clc1ccc(/C=C/c2cccc3c4c([nH]c23)C2CCN(CC2)C4)cc1 [Example 4, 7-[(E)-2-(4-chlorophenyl)vinyl]-3,4,5,6-tetrahydro-1H-2,5-ethanoazepino[4,3-b]indole]
[1]
  Emax: 123%
Homo sapiens, SK-N-SH
  EC50: 4.09 µM

## C(=C\c1cccc2c3c([nH]c12)C1CCN(CC1)C3)/CCCc1ccccc1 [Example 5, 7-[(1E)-5-phenylpent-1-enyl]-3,4,5,6-tetrahydro-1H-2,5-ethanoazepino[4,3-b]indole]
[1]
  Emax: 58%
Homo sapiens, SK-N-SH
  EC50: 5.27 µM

## C(=C\c1cccc2c3c([nH]c12)C1CCN(CC1)C3)/c1ccsc1 [Example 6, 7-[(E)-2-thien-3-ylvinyl]-3,4,5,6-tetrahydro-1H-2,5-ethanoazepino[4,3-b]indole]
[1]
  Emax: 67%
Homo sapiens, SK-N-SH
  EC50: 6.62 µM

## c1ccc(CCCCCc2cccc3c4c([nH]c23)C2CCN(CC2)C4)cc1 [Example 7, 7-(5-phenylpentyl)-3,4,5,6-tetrahydro-1H-2,5-ethanoazepino[4,3-b]indole]
[1]
  Emax: 62%
Homo sapiens, SK-N-SH
  EC50: 1.43 µM

## Cc1ccc(CCc2ccc3[nH]c4c(c3c2)CN2CCC4CC2)cn1 [Example 9, 9-[2-(6-methylpyridin-3-yl)ethyl]-3,4,5,6-tetrahydro-1H-2,5-ethanoazepino[4,3-b]indole]
[1]
  Emax: 110%
Homo sapiens, SK-N-SH
  EC50: 3.94 µM

## Fc1ccc(/C=C/c2cccc3c4c([nH]c23)C2CCN(CC2)C4)cc1 [Example 10, 7-[(E)-2-(4-fluorophenyl)vinyl]-3,4,5,6-tetrahydro-1H-2,5-ethanoazepino[4,3-b]indole]
[1]
  Emax: 84%
Homo sapiens, SK-N-SH
  EC50: 4.74 µM

## C(=C\c1cccc2c3c([nH]c12)C1CCN(CC1)C3)/c1ccncc1 [Example 11, 7-[(E)-2-pyridin-4-ylvinyl]-3,4,5,6-tetrahydro-1H-2,5-ethanoazepino[4,3-b]indole]
[1]
  Emax: 171%
Homo sapiens, SK-N-SH
  EC50: 6.73 µM

## C(=C\c1cccc2c3c([nH]c12)C1CCN(CC1)C3)/c1ccccn1 [Example 12, 7-[(E)-2-pyridin-2-ylvinyl]-3,4,5,6-tetrahydro-1H-2,5-ethanoazepino[4,3-b]indole]
[1]
  Emax: 192%
Homo sapiens, SK-N-SH
  EC50: 3.56 µM

## C(#Cc1cccc2c3c([nH]c12)C1CCN(CC1)C3)c1cccnc1 [Example 13, 7-(pyridin-3-ylethynyl)-3,4,5,6-tetrahydro-1H-2,5-ethanoazepino[4,3-b]indole]
[1]
  Emax: 142%
Homo sapiens, SK-N-SH
  EC50: 5.17 µM

## Fc1ccc(/C=C/c2cccc3c4c([nH]c23)C2CCN(CC2)C4)c(F)c1 [Example 14, 7-[(E)-2-(2,4-difluorophenyl)vinyl]-3,4,5,6-tetrahydro-1H-2,5-ethanoazepino[4,3-b]indole]
[1]
  Emax: 39%
Homo sapiens, SK-N-SH
  EC50: > 30 µM

## Fc1cccc(/C=C/c2cccc3c4c([nH]c23)C2CCN(CC2)C4)c1 [Example 15, 7-[(E)-2-(3-fluorophenyl)vinyl]-3,4,5,6-tetrahydro-1H-2,5-ethanoazepino[4,3-b]indole]
[1]
  Emax: 44%
Homo sapiens, SK-N-SH
  EC50: > 30 µM

## Fc1cccc(CCc2cccc3c4c([nH]c23)C2CCN(CC2)C4)c1 [Example 16, 7-[2-(3-fluorophenyl)ethyl]-3,4,5,6-tetrahydro-1H-2,5-ethanoazepino[4,3-b]indole]
[1]
  Emax: 49%
Homo sapiens, SK-N-SH
  EC50: > 30 µM

## Cc1ccc(/C=C/c2cccc3[nH]c4c(c23)CN2CCC4CC2)cn1 [Example 18, 10-[(E)-2-(6-methylpyridin-3-yl)vinyl]-3,4,5,6-tetrahydro-1H-2,5-ethanoazepino[4,3-b]indole]
[1]
  Emax: 173%
Homo sapiens, SK-N-SH
  EC50: 3.1 µM

## C(=C\c1cccc2c3c([nH]c12)C1CCN(CC1)C3)/c1ccccc1 [Example 19, 7-[(E)-2-phenylvinyl]-3,4,5,6-tetrahydro-1H-2,5-ethanoazepino[4,3-b]indole]
[1]
  Emax: 64%
Homo sapiens, SK-N-SH
  EC50: 3.52 µM

## FC(F)(F)Oc1ccc(C#Cc2cccc3c4c([nH]c23)C2CCN(CC2)C4)cc1 [Example 20, 7-{[4-(trifluoromethoxy)phenyl]ethynyl}-3,4,5,6-tetrahydro-1H-2,5-ethanoazepino[4,3-b]indole]
[1]
  Emax: 47%
Homo sapiens, SK-N-SH
  EC50: > 30 µM

## C(#Cc1cccc2c3c([nH]c12)C1CCN(CC1)C3)c1ccncc1 [Example 21, 7-(pyridin-4-ylethynyl)-3,4,5,6-tetrahydro-1H-2,5-ethanoazepino[4,3-b]indole]
[1]
  Emax: 104%
Homo sapiens, SK-N-SH
  EC50: 3.69 µM

## Cc1ccc(C#Cc2ccc3c4c([nH]c3c2)C2CCN(CC2)C4)cn1 [Example 22, 8-[(6-methylpyridin-3-yl)ethynyl]-3,4,5,6-tetrahydro-1H-2,5-ethanoazepino[4,3-b]indole]
[1]
  Emax: 185%
Homo sapiens, SK-N-SH
  EC50: 8.66 µM

## Cc1ccc(C#Cc2cccc3[nH]c4c(c23)CN2CCC4CC2)cn1 [Example 23, 10-[(6-methylpyridin-3-yl)ethynyl]-3,4,5,6-tetrahydro-1H-2,5-ethanoazepino[4,3-b]indole]
[1]
  Emax: 140%
Homo sapiens, SK-N-SH
  EC50: 7.27 µM

## Cc1ccc(C#Cc2cc(F)cc3c4c([nH]c23)C2CCN(CC2)C4)cn1 [Example 24, 9-fluoro-7-[(6-methylpyridin-3-yl)ethynyl]-3,4,5,6-tetrahydro-1H-2,5-ethanoazepino[4,3-b]indole]
[1]
  Emax: 156%
Homo sapiens, SK-N-SH
  EC50: 5.38 µM

## Cc1ccc(/C=C/c2cc(F)cc3c4c([nH]c23)C2CCN(CC2)C4)cn1 [Example 25, 9-fluoro-7-[(E)-2-(6-methylpyridin-3-yl)vinyl]-3,4,5,6-tetrahydro-1H-2,5-ethanoazepino[4,3-b]indole]
[1]
  Emax: 127%
Homo sapiens, SK-N-SH
  EC50: 3.42 µM

## c1ccc(COc2cccc3c4c([nH]c23)C2CCN(CC2)C4)cc1 [Example 26, 7-(benzyloxy)-3,4,5,6-tetrahydro-1H-2,5-ethanoazepino[4,3-b]indole]
[1]
  Emax: 494%
Homo sapiens, SK-N-SH
  EC50: 9.81 µM

## Cc1ccc(/C=C/c2cccc3c4c([nH]c23)C2CC[N+]([O-])(CC2)C4)cn1 [Example 28, 7-[(E)-2-(6-methylpyridin-3-yl)yinyl]-1,2,3,4,5,6-hexahydro-2,5-ethanoazepino[4,3-b]indole 2-oxide]
Percent maximal JC-1 ratio normalized to peak value for 10 μM dimebolin
  JC-1 max %: 50%
  EC50: > 30 µM

## Cc1ccc(/C=C\c2cccc3c4c([nH]c23)C2CCN(CC2)C4)cn1 [Example 31, 7-[(Z)-2-(6-methylpyridin-3-yl)vinyl]-3,4,5,6-tetrahydro-1H-2,5-ethanoazepino[4,3-b]indole]
[1]
  Emax: 120%
Homo sapiens, SK-N-SH
  EC50: 7.75 µM

## Cc1ccc(/C=C/c2cccc3c4c([nH]c23)CN2CCC4CC2)cn1 [Example 32, 9-[(E)-2-(6-methylpyridin-3-yl)vinyl]-3,4,5,10-tetrahydro-1H-2,5-ethanoazepino[3,4-b]indole]
[1]
  Emax: 199%
Homo sapiens, SK-N-SH
  EC50: 3.64 µM

## Cc1ccc(CCc2cccc3c4c([nH]c23)CN2CCC4CC2)cn1 [Example 33, 9-[2-(6-methylpyridin-3-yl)ethyl]-3,4,5,10-tetrahydro-1H-2,5-ethanoazepino[3,4-b]indole]
[1]
  Emax: 197%
Homo sapiens, SK-N-SH
  EC50: 6.01 µM

## C(=C\c1cccc2c3c([nH]c12)C1CCN(CC1)C3)/c1cccnc1 [Example 34, 7-[(E)-2-pyridin-3-ylvinyl]-3,4,5,6-tetrahydro-1H-2,5-ethanoazepino[4,3-b]indole]
[1]
  Emax: 109%
Homo sapiens, SK-N-SH
  EC50: 6.3 µM

## Cc1ccc(/C=C/c2cccc3c4c([nH]c23)C2CCCN(C4)C2)cn1 (stereo not drawn) [Example 35, 8-[(E)-2-(6-methylpyridin-3-yl)vinyl]-1,3,4,5,6,7-hexahydro-2,6-methanoazocino[4,3-b]indole]
[1]
  Emax: 213%
Homo sapiens, SK-N-SH
  EC50: 7.28 µM
